Measured values from patent US20070270421A1, “Novel pyridine Derivative and Pyrimidine Derivative (1)” (priority 2004, published 2007).

Tested on: Human pancreatic cancer cells (SUIT-2)
Experiment: Inhibitory activity against migration of human pancreatic cancer cells (SUIT-2)
Format: cell-based
Conditions: SUIT-2, Transwell, HGF stimulation, 24 hrs, read-out: IC50 (concentration necessary to inhibit the cell migration activity by 50%)
Method: Human pancreatic cancer cells (SUIT-2) were suspended in a 1% FBS-containing RPMI1640 medium (purchased from Sigma) to prepare a cell suspension (8×10^5 cells/ml). To the lower compartment of Transwell (purchased from COSTAR, Production No. 3422) was added 600 μl of a 1% FBS-containing RPMI1640 medium. To the upper compartment were added 50 μl of the above cell suspension and 25 μl of the test substance dissolved in dimethyl sulfoxide (diluted with the 1% FBS-containing RPMI1640 medium), followed by culturing in a 5% CO2 incubator (37° C.) for 1 hr. After the culture, to the upper compartment of each Transwell was added 25 μl of human recombinant hepatocyte growth factor (HGF, purchased from Wako Pure Chemical Industry, Production No. 22949) diluted to 280 ng/ml with a 1% FBS-containing RPMI1640 medium, followed by culturing in a 5% CO2 incubator (37° C.) for 24 hrs. The cells adhering to the lower compartment of each well were counted in five fields by a phase contrast microscope (200×) to calculated an average adhering cell number. While defining the average adhering cell number of a well supplied with […] and no test substance as 100% cell migration activity and the average adhering cell number of a well supplied with no HGFR and no test substance as 0% cell migration activity, the cell migration activity percent (%) was calculated for each well. The concentration of the test substance was varied at several levels to calculate the cell migration activity percent (%) for respective cases, and to calculate the concentration of the test substance necessary to inhibit the cell migration activity by 50% (IC50).

First: O=C(Cc1ccc(F)cc1)NC(=S)Nc1ccc(Oc2ccnc(NC(=O)N3CCCC3)c2)c(F)c1 [Example 13, 4-(2-Fluoro-4-{3-[2-(4-fluorophenyl)acetyl]thioureido}phenoxy)-2-[(pyrrolidin-1-yl)carbonylamino]pyridine]
Second: O=C(Cc1ccc(F)cc1)NC(=S)Nc1ccc(Oc2cc(NC(=O)N3CCCC3)ncn2)c(F)c1 [Example 3, Pyrrolidine-1-carboxylic acid [6-(2-fluoro-4-{3-[2-(4-fluorophenyl)acetyl]thioureido}phenoxy)pyrimidin-4-yl]amide]
The IC50 of the first is 16-fold lower: 3.2 nM for the first, 50 nM for the second.

For `O=C(CC(=O)Nc1ccc(Oc2ccnc(NC(=O)N3CCCC3)c2)c(F)c1)Nc1ccc(F)cc1` [Example 56, N-(4-Fluorophenyl)-N′-(3-fluoro-4-{2-[(pyrrolidine-1-carbonyl)amino]pyridin-4-yloxy}phenyl)malonamide], the IC50 was 38 nM.

Target: T1, HGFR (His6-HGFR cytoplasmic domain) (Homo sapiens, UniProt P08581)
T1 construct: made in house; host or cells: Spodoptera frugiperda Sf9 insect cells (baculovirus, pFastBac-HT)
T1 sequence (P08581 956-1390 limits assumed): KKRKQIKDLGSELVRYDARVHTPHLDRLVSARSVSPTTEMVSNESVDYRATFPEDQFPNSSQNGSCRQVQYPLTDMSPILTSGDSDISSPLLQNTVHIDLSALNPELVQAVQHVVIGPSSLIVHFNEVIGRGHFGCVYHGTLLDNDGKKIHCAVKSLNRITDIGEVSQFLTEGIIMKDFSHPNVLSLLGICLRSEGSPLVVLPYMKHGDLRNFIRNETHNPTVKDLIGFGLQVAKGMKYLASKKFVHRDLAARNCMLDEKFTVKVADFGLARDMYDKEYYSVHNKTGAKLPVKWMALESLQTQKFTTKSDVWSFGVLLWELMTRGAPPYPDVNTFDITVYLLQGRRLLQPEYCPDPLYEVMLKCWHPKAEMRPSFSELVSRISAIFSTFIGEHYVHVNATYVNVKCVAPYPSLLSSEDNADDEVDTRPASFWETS
Experiment: Inhibitory activity against HGFR tyrosine kinase activity (HTRF)
Format: biochemical
Conditions: biotin-poly(GT), ATP, 30° C. 10 min, read-out: IC50 (concentration necessary to inhibit HGFR kinase activity by 50%)
Outline: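 Baculovirus/Sf9-expressed N-terminal His6-tagged HGFR cytoplasmic domain (from Lys974), Ni-NTA purified, phosphorylated biotin-poly(GT) in Hepes pH 7.4 with MgCl2/MnCl2. ATP added as 4 μM solution; 10 min at 30° C., stopped with EDTA. Phosphotyrosine product detected by HTRF.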

`CN1CCCN(C(=O)Nc2cc(Oc3ccc(NC(=O)CC(=O)Nc4ccc(F)cc4)c(F)c3)ccn2)CC1` [Example 92, N-(2-Fluoro-4-{2-[(4-methyl-[1,4]diazepane-1-carbonyl)amino]pyridin-4-yloxy}phenyl)-N′-(4-fluorophenyl)malonamide] and `O=C(CC(=O)Nc1ccc(Oc2ccnc(NC(=O)N3CCC(N4CCCC4)CC3)c2)cc1F)Nc1ccc(F)cc1` [Example 82, N-(4-Fluorophenyl)-N′-[2-fluoro-4-(2-{[4-(pyrrolidin-1-yl)piperidine-1-carbonyl]amino}pyridin-4-yloxy)phenyl]malonamide] are within 1.5-fold of each other in IC50: 78 nM for the first, 66 nM for the second.

Compared with `O=C(Cc1ccc(F)cc1)NC(=S)Nc1ccc(Oc2ccnc(NC(=O)N3CCCC3)c2)c(F)c1` [Example 13, 4-(2-Fluoro-4-{3-[2-(4-fluorophenyl)acetyl]thioureido}phenoxy)-2-[(pyrrolidin-1-yl)carbonylamino]pyridine], `O=C(Cc1ccc(F)cc1)NC(=S)Nc1ccc(Oc2cc(NC(=O)N3CCCC3)ncn2)c(F)c1` [Example 3, Pyrrolidine-1-carboxylic acid [6-(2-fluoro-4-{3-[2-(4-fluorophenyl)acetyl]thioureido}phenoxy)pyrimidin-4-yl]amide] is 1.5-fold lower in IC50: 110 nM for the first, 71 nM for the second. The second is the more potent here.

Going from `CCN(CC)CCCN(C)C(=O)Nc1cc(Oc2ccc(NC(=S)NC(=O)Cc3ccc(F)cc3)cc2F)ccn1` [Example 22, 1-(3-Diethylaminopropyl)-3-[4-(2-fluoro-4-{3-[2-(4-fluorophenyl)acetyl]thioureido}phenoxy)pyridin-2-yl]-1-methylurea] to `Cc1cc(NC(=S)NC(=O)Cc2ccc(F)cc2)ccc1Oc1ccnc(NC(=O)N2CCOCC2)c1` [Example 24, Morpholine-4-carboxylic acid (4-{2-methyl-4-[3-(4-fluorophenyl)acetylthioureido]phenoxy}pyridin-2-yl)amide], the IC50 falls from 110 nM to 54 nM (2-fold).

`CN1CCC(N(C)C(=O)Nc2cc(Oc3ccc(NC(=O)CC(=O)Nc4ccc(F)cc4)cc3F)ccn2)CC1` [Example 89, N-(3-Fluoro-4-{2-[3-methyl-3-(1-methylpiperidin-4-yl)ureido]pyridin-4-yloxy}phenyl)-N′-(4-fluorophenyl)malonamide] and `O=C(CC(=O)Nc1ccc(Oc2ccnc(NC(=O)N3CCCC3)c2)c(F)c1)Nc1ccc(F)cc1` [Example 56, N-(4-Fluorophenyl)-N′-(3-fluoro-4-{2-[(pyrrolidine-1-carbonyl)amino]pyridin-4-yloxy}phenyl)malonamide] are within 1.5-fold of each other in IC50: 38 nM for the first, 56 nM for the second.

`O=C(Cc1ccccc1)NC(=O)Nc1ccc(Oc2ccnc(NC(=O)N3CCC(N4CCCC4)CC3)c2)c(F)c1` [Example 45, 4-{2-Fluoro-4-[3-(2-phenylacetyl)ureido]phenoxy}-2-{[4-(pyrrolidin-1-yl)piperidin-1-yl]carbonylamino}pyridine] and `O=C(Cc1ccccc1)NC(=O)Nc1ccc(Oc2ccnc(NC(=O)N3CCCC3)c2)c(F)c1` [Example 43, 4-{2-Fluoro-4-[3-(2-phenylacetyl)ureido]phenoxy}-2-[(pyrrolidin-1-yl)carbonylamino]pyridine] are within 1.5-fold of each other in IC50: 91 nM for the first, 83 nM for the second.

First: CN1CCN(C(=O)Nc2cc(Oc3ccc(NC(=O)NC(=O)Cc4ccccc4)cc3F)ccn2)CC1 [Example 50, 4-Methylpiperazine-1-carboxylic acid {4-[2-fluoro-4-(3-phenylacetylureido)phenoxy]pyridin-2-yl}amide]
Second: O=C(Cc1ccccc1)NC(=O)Nc1ccc(Oc2ccnc(NC(=O)N3CCOCC3)c2)c(F)c1 [Example 48, Morpholine-4-carboxylic acid {4-[2-fluoro-4-(3-phenylacetylureido)phenoxy]pyridin-2-yl}amide]
The IC50 of the first is 3.4-fold higher: 190 nM for the first, 56 nM for the second.

First: CN(C)C(=O)Nc1cc(Oc2ccc(NC(=O)NC(=O)Cc3ccccc3)cc2F)ccn1 [Example 44, 2-[(Dimethylamino)carbonylamino]-4-{2-fluoro-4-[3-(2-phenylacetyl)ureido]phenoxy}pyridine]
Second: CN1CCC(N(C)C(=O)Nc2cc(Oc3ccc(NC(=O)NC(=O)Cc4ccccc4)cc3F)ccn2)CC1 [Example 52, 3-{4-[2-Fluoro-4-(3-phenylacetylureido)phenoxy]pyridin-2-yl]-1-methyl-1-(1-methylpiperidin-4-yl)urea]
The IC50 of the first is 1.6-fold lower: 45 nM for the first, 73 nM for the second.

`CN(C)C(=O)Nc1cc(Oc2ccc(NC(=S)NC(=O)CC3CC4CCC3C4)cc2F)ccn1` (stereo not drawn) [Example 17, 2-[(Dimethylamino)carbonylamino]-4-{2-fluoro-4-[3-(2-norbornaneacetylthio)ureido]phenoxy}pyridine] and `CN1CCC(N(C)C(=O)Nc2cc(Oc3ccc(NC(=S)NC(=O)Cc4ccccc4)cc3F)ccn2)CC1` [Example 28, 3-{4-[2-Fluoro-4-(3-phenylacetylthioureido)phenoxy]pyridin-2-yl}-1-methyl-1-(1-methylpiperidin-4-yl)urea] are within 1.5-fold of each other in IC50: 64 nM for the first, 75 nM for the second.

Compared with `Cc1cc(Oc2ccnc(NC(=O)N3CCC(N4CCCC4)CC3)c2)ccc1NC(=O)CC(=O)Nc1ccc(F)cc1` [Example 85, N-(4-Fluorophenyl)-N′-[2-methyl-4-(2-{[(4-pyrrolidin-1-yl)piperidine-1-carbonyl]amino}pyridin-4-yloxy)phenyl]malonamide], `O=C(CC(=O)Nc1ccc(Oc2ccnc(NC(=O)C3CC3)c2)cc1F)Nc1ccc(F)cc1` [Example 77, N-(4-Fluorophenyl)-N′-{4-[2-(cyclopropanecarbonylamino)pyridin-4-yloxy]-2-fluorophenyl}malonamide] is 7.4-fold lower in IC50: 96 nM for the first, 13 nM for the second. The second is the more potent here.

Going from `O=C(Cc1ccccc1)NC(=S)Nc1ccc(Oc2ccnc(NC(=O)N3CCOCC3)c2)c(Cl)c1` [Example 11, 4-{2-Chloro-4-[3-(2-phenylacetyl)thioureido]phenoxy}-2-[(morpholin-4-yl)carbonylamino]pyridine] to `O=C(Cc1ccccc1)NC(=S)Nc1ccc(Oc2ccnc(NC(=O)N3CCC(O)CC3)c2)c(F)c1` [Example 15, 4-{2-Fluoro-4-[3-(2-phenylacetyl)thioureido]phenoxy}-2-[(4-hydroxypiperidin-1-yl)carbonylamino]pyridine], the IC50 falls from 88 nM to < 30 nM. The second is the more potent here.

In the case of `O=C(Cc1ccc(F)cc1)NC(=S)Nc1ccc(Oc2ccnc(NC(=O)N3CCCC3)c2)cc1` [Example 9, Pyrrolidine-1-carboxylic acid [4-(4-{3-[2-(4-fluorophenyl)acetyl]thioureido}phenoxy)pyridin-2-yl]amide], the IC50 is reported as 53 nM.
